{"source": "ChEMBL document CHEMBL3751755", "about": "“Developing steroidal aromatase inhibitors-an effective armament to win the battle against breast cancer” (Eur J Med Chem, 2015)", "key": {"Aromatase [1]": {"molecular_target": "T1, Aromatase (Homo sapiens, UniProt P11511)", "T1 sequence (P11511 whole entry)": "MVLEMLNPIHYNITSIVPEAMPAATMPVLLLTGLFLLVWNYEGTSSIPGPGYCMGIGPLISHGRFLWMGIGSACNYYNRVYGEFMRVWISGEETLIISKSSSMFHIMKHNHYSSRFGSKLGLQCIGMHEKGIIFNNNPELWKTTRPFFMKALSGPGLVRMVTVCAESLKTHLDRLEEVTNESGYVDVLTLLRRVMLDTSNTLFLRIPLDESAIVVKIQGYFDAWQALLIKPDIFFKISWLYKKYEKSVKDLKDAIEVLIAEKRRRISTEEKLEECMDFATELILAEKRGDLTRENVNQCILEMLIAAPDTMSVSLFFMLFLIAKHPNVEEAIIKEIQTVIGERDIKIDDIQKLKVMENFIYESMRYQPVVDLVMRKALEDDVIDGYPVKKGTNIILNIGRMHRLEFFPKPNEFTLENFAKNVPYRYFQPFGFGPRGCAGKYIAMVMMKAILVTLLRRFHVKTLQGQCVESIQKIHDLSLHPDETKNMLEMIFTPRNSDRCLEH", "assay": "Competitive inhibition of human aromatase extracted from placental microsomes by Dixon plot analysis in presence of [1beta-3H]AD"}, "Aromatase [2]": {"molecular_target": "T1, Aromatase", "assay": "Competitive inhibition of human aromatase extracted from placental microsomes by Dixon plot analysis in presence of [1beta-3H]androstenedione"}, "Aromatase [3]": {"molecular_target": "T1, Aromatase", "assay": "Competitive inhibition of human aromatase extracted from placental microsomes after 10 mins in presence of [1beta-3H]androstenedione"}, "Aromatase [4]": {"molecular_target": "T1, Aromatase", "assay": "Competitive inhibition of aromatase (unknown origin)"}}, "data": [{"compound": "C[C@]12CCC(=O)C=C1C(=O)C[C@@H]1[C@@H]2CC[C@]2(C)C(=O)[C@H](Br)C[C@@H]12", "values": [{"measurement": "Ki", "setting": "Aromatase [1]; read-out: Ki(app)", "value": 150, "unit": "nM"}]}, {"compound": "CCO[C@@H]1C[C@@]2(C)C(=CC1=O)CC[C@@H]1[C@@H]2CC[C@]2(C)C(=O)CC[C@@H]12", "values": [{"measurement": "Ki", "setting": "Aromatase [1]; read-out: Ki", "value": 670, "unit": "nM"}]}, {"compound": "CC[C@@H]1C[C@@H]2[C@H](CC[C@]3(C)C(=O)CC[C@@H]23)[C@@]2(C)C=CC(=O)C=C12", "values": [{"measurement": "Ki", "setting": "Aromatase [2]; read-out: Ki(app)", "value": 4.7, "unit": "nM"}]}, {"compound": "C[C@]12C[C@@H](Cl)C(=O)C=C1CC[C@@H]1[C@@H]2CC[C@]2(C)C(=O)CC[C@@H]12", "values": [{"measurement": "Ki", "setting": "Aromatase [1]; read-out: Ki", "value": 45, "unit": "nM"}]}, {"compound": "C[C@@H]1C[C@@H]2[C@H](CC[C@]3(C)C(=O)CC[C@@H]23)[C@@]2(C)CCC(=O)C=C12", "values": [{"measurement": "Ki", "setting": "Aromatase [3]", "value": 1.4, "unit": "nM"}]}, {"compound": "C[C@]12CC[C@H]3[C@@H](CCC4=CC(=O)[C@H]5CC[C@]43C5)[C@@H]1CCC2=O", "values": [{"measurement": "Ki", "setting": "Aromatase [4]", "value": 10, "unit": "µM"}]}, {"compound": "C[C@]12CC[C@H]3[C@@H](CCC4=CC(=O)CC[C@@]43C(=O)C(F)(F)F)[C@@H]1CCC2=O", "values": [{"measurement": "IC50", "setting": "Aromatase [4]", "value": 26, "unit": "µM"}]}, {"compound": "C#CC[C@H]1C[C@@H]2[C@H](CC[C@]3(C)C(=O)CC[C@@H]23)[C@@]2(C)CCC(=O)C=C12", "values": [{"measurement": "Ki", "setting": "Aromatase [3]", "value": 37, "unit": "nM"}]}, {"compound": "CC[C@]12CCC(=O)C=C1CC[C@@H]1[C@@H]2CC[C@]2(C)C(=O)CC[C@@H]12", "values": [{"measurement": "Ki", "setting": "Aromatase [2]; read-out: Ki", "value": 8.2, "unit": "nM"}]}, {"compound": "CSC[C@]12CCC(=O)C=C1CC[C@@H]1[C@@H]2CC[C@]2(C)C(=O)CC[C@@H]12", "values": [{"measurement": "Ki", "setting": "Aromatase [4]", "value": 0.001, "unit": "µM"}]}, {"compound": "C#CC[C@@H]1C[C@@H]2[C@H](CC[C@]3(C)C(=O)CC[C@@H]23)[C@@]2(C)CCC(=O)C=C12", "values": [{"measurement": "Ki", "setting": "Aromatase [3]", "value": 10, "unit": "nM"}]}, {"compound": "C=C[C@@H]1C[C@@H]2[C@H](CC[C@]3(C)C(=O)CC[C@@H]23)[C@@]2(C)CCC(=O)C=C12", "values": [{"measurement": "Ki", "setting": "Aromatase [3]", "value": 5.1, "unit": "nM"}]}, {"compound": "C[C@]12CCC3C(C[C@H]4COC[C@@]35CCC(=O)C=C45)C1CCC2=O", "note": "(stereo not given in full)", "values": [{"measurement": "Ki", "setting": "Aromatase [4]", "value": 10, "unit": "µM"}]}, {"compound": "C[C@]12C[C@@H](Br)C(=O)C=C1CC[C@@H]1[C@@H]2CC[C@]2(C)C(=O)CC[C@@H]12", "values": [{"measurement": "Ki", "setting": "Aromatase [1]; read-out: Ki", "value": 45, "unit": "nM"}]}, {"compound": "CC[C@]12C=CC(=O)C=C1CC[C@H]1[C@@H]3CCC(=O)[C@@]3(C)CC[C@@H]12", "values": [{"measurement": "Ki", "setting": "Aromatase [2]; read-out: Ki", "value": 8.2, "unit": "nM"}]}, {"compound": "CO[C@H]1C=C2C(=O)C[C@@H]3[C@H](CC[C@]4(C)C(=O)CC[C@@H]34)[C@@]2(C)CC1", "values": [{"measurement": "Ki", "setting": "Aromatase [1]; read-out: Ki", "value": 700, "unit": "nM"}]}, {"compound": "CCCC[C@H]1C[C@@H]2[C@H](CC[C@]3(C)C(=O)CC[C@@H]23)[C@@]2(C)CCC(=O)C=C12", "values": [{"measurement": "Ki", "setting": "Aromatase [3]", "value": 1.4, "unit": "nM"}]}, {"compound": "C[C@]12CCCCC1=CC(=O)[C@@H]1[C@@H]2CC[C@]2(C)C(=O)CC[C@@H]12", "values": [{"measurement": "Ki", "setting": "Aromatase [2]; read-out: Ki", "value": 143, "unit": "nM"}]}, {"compound": "C[C@]12CCC(=O)C=C1[C@@H](Cc1ccccc1)C[C@@H]1[C@@H]2CC[C@]2(C)C(=O)CC[C@@H]12", "values": [{"measurement": "Ki", "setting": "Aromatase [3]", "value": 10, "unit": "nM"}]}, {"compound": "CC[C@@H]1C[C@@H]2[C@H](CC[C@]3(C)C(=O)CC[C@@H]23)[C@@]2(C)CCC(=O)C=C12", "values": [{"measurement": "Ki", "setting": "Aromatase [3]", "value": 1.4, "unit": "nM"}]}, {"compound": "C[C@]12CC[C@H]3[C@@H](C(=O)C=C4CCCC[C@@]43O)[C@@H]1CCC2=O", "values": [{"measurement": "Ki", "setting": "Aromatase [2]; read-out: Ki(app)", "value": 1100, "unit": "nM"}]}, {"compound": "C[C@H]1C[C@@H]2[C@H](CC[C@]3(C)C(=O)CC[C@@H]23)[C@@]2(C)CCC(=O)C=C12", "values": [{"measurement": "Ki", "setting": "Aromatase [3]", "value": 1.4, "unit": "nM"}]}, {"compound": "CCCCC[C@@H]1C[C@@H]2[C@H](CC[C@]3(C)C(=O)CC[C@@H]23)[C@@]2(C)C=CC(=O)C=C12", "values": [{"measurement": "Ki", "setting": "Aromatase [2]; read-out: Ki(app)", "value": 5, "unit": "nM"}]}, {"compound": "CO[C@@H]1C[C@@]2(C)C(=CC1=O)CC[C@@H]1[C@@H]2CC[C@]2(C)C(=O)CC[C@@H]12", "values": [{"measurement": "Ki", "setting": "Aromatase [1]; read-out: Ki", "value": 670, "unit": "nM"}]}, {"compound": "C/C=C1\\C[C@@H]2[C@H](CC[C@]3(C)C(=O)CC[C@@H]23)[C@@]2(C)CCC(=O)C=C12", "values": [{"measurement": "Ki", "setting": "Aromatase [3]", "value": 4.9, "unit": "nM"}]}, {"compound": "CCCC[C@@H]1C[C@@H]2[C@H](CC[C@]3(C)C(=O)CC[C@@H]23)[C@@]2(C)CCC(=O)C=C12", "values": [{"measurement": "Ki", "setting": "Aromatase [3]", "value": 1.4, "unit": "nM"}]}, {"compound": "C[C@]12CC[C@H]3[C@@H](C(=O)C=C4CCCC[C@@]43CO)[C@@H]1CCC2=O", "values": [{"measurement": "Ki", "setting": "Aromatase [2]; read-out: Ki", "value": 11100, "unit": "nM"}]}, {"compound": "C[C@]12C[C@@H](O)C(=O)C=C1CC[C@@H]1[C@@H]2CC[C@]2(C)C(=O)CC[C@@H]12", "values": [{"measurement": "Ki", "setting": "Aromatase [1]; read-out: Ki", "value": 670, "unit": "nM"}]}, {"compound": "C[C@]12CCC(=O)C=C1C(=O)C[C@@H]1[C@@H]2CC[C@]2(C)C(=O)[C@H](O)C[C@@H]12", "values": [{"measurement": "Ki", "setting": "Aromatase [1]; read-out: Ki", "value": 1180, "unit": "nM"}]}, {"compound": "CC[C@]12C=CC(=O)C=C1C=C[C@H]1[C@@H]3CCC(=O)[C@@]3(C)CC[C@@H]12", "values": [{"measurement": "Ki", "setting": "Aromatase [2]; read-out: Ki", "value": 8.2, "unit": "nM"}]}]}
